The values that follow come from PubChem BioAssay AID248 (DTP/NCI, 2004).

This experiment deals with L1210 leukemia ip in BDF1 mice, survival T/C. Description: NCI In Vivo Anticancer Drug Screen. Data for tumor model L1210 Leukemia (intraperitoneal) in B6D2F1 (BDF1) mice. The conditions noted are these: higher = longer survival. A digest of the protocol: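 Each compound was tested against a transplantable tumor grown in mice. The endpoint was survival, with treated animals benchmarked against vehicle controls as a simple ratio.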

The mark [1] stands for this setting: endpoint: mean survival time, dose: 400.0 mg/kg/injection, schedule: Q04DX002 (ip), vehicle: saline with Tween-80.
[2] abbreviates: endpoint: mean survival time, dose: 100.0 mg/kg/injection, schedule: Q01DX009 (ip), vehicle: Klucel (hydroxypropylcellulose) (HPC).
Setting [3] is: endpoint: mean survival time, dose: 200.0 mg/kg/injection, schedule: Q01DX009 (ip), vehicle: Klucel (hydroxypropylcellulose) (HPC).
The mark [4] stands for this setting: endpoint: mean survival time, dose: 400.0 mg/kg/injection, schedule: Q01DX009 (ip), vehicle: Klucel (hydroxypropylcellulose) (HPC).
Setting [5] is: endpoint: mean survival time, dose: 100.0 mg/kg/injection, schedule: Q01DX001 (ip), vehicle: saline.
Where [6] appears, read: endpoint: mean survival time, dose: 200.0 mg/kg/injection, schedule: Q01DX001 (ip), vehicle: saline.
Where [7] appears, read: endpoint: mean survival time, dose: 400.0 mg/kg/injection, schedule: Q01DX001 (ip), vehicle: saline.
Setting [8] is: endpoint: mean survival time, dose: 100.0 mg/kg/injection, schedule: Q04DX003 (ip), vehicle: saline.
Setting [9] is: endpoint: mean survival time, dose: 200.0 mg/kg/injection, schedule: Q04DX003 (ip), vehicle: saline.
[10] abbreviates: endpoint: mean survival time, dose: 400.0 mg/kg/injection, schedule: Q04DX003 (ip), vehicle: saline.

“And” between values parts separate entries of the source, which are not always exact repeats. Identical values can stand only once. Inconclusive results and toxic doses are left out.

In the case of `Cn1c(N)nc2nc[nH]c2c1=S`, the T/C was 104 % of control (endpoint: mean survival time, dose: 0.25 mg/kg/injection, schedule: Q01DX Z (ip), vehicle: carboxymethylcellulose (CMC)); 101 % of control (endpoint: mean survival time, dose: 0.5 mg/kg/injection, schedule: Q01DX Z (ip), vehicle: carboxymethylcellulose (CMC)); 104 % of control (endpoint: mean survival time, dose: 1.0 mg/kg/injection, schedule: Q01DX Z (ip), vehicle: carboxymethylcellulose (CMC)); 103 % of control (endpoint: mean survival time, dose: 2.0 mg/kg/injection, schedule: Q01DX015 (ip), vehicle: carboxymethylcellulose (CMC)); 107 % of control (endpoint: mean survival time, dose: 2.0 mg/kg/injection, schedule: Q01DX Z (ip), vehicle: carboxymethylcellulose (CMC)); 95 % of control and 91 % of control (endpoint: mean survival time, dose: 2.5 mg/kg/injection, schedule: Q01DX010 (ip), vehicle: saline). For the same compound, the T/C was 159 % of control (endpoint: mean survival time, dose: 2.7 mg/kg/injection, schedule: Q01DX Z (ip), vehicle: methylcellulose (MC)); 92 % of control (endpoint: mean survival time, dose: 4.0 mg/kg/injection, schedule: Q01DX015 (ip), vehicle: carboxymethylcellulose (CMC)); 97 % of control and 106 % of control (endpoint: mean survival time, dose: 4.0 mg/kg/injection, schedule: Q01DX Z (ip), vehicle: carboxymethylcellulose (CMC)); 150 % of control (endpoint: mean survival time, dose: 4.0 mg/kg/injection, schedule: Q01DX Z (ip), vehicle: methylcellulose (MC)); 101 % of control and 106 % of control (endpoint: mean survival time, dose: 5.0 mg/kg/injection, schedule: Q01DX009 (ip), vehicle: saline); 97 % of control and 101 % of control (endpoint: mean survival time, dose: 5.0 mg/kg/injection, schedule: Q01DX010 (ip), vehicle: saline). Besides, the T/C by setting is: (endpoint: mean survival time, dose: 6.0 mg/kg/injection, schedule: Q01DX Z (ip), vehicle: methylcellulose (MC)) 123 % of control; (endpoint: mean survival time, dose: 8.0 mg/kg/injection, schedule: Q01DX015 (ip), vehicle: carboxymethylcellulose (CMC)) 107 % of control; (endpoint: mean survival time, dose: 8.0 mg/kg/injection, schedule: Q01DX Z (ip), vehicle: carboxymethylcellulose (CMC)) 118 % of control; (endpoint: mean survival time, dose: 10.0 mg/kg/injection, schedule: Q01DX009 (ip), vehicle: saline) 101 % of control and 104 % of control; (endpoint: mean survival time, dose: 10.0 mg/kg/injection, schedule: Q01DX010 (ip), vehicle: saline) 100 % of control and 91 % of control; (endpoint: mean survival time, dose: 16.0 mg/kg/injection, schedule: Q01DX015 (ip), vehicle: carboxymethylcellulose (CMC)) 104 % of control and 116 % of control. In addition, the T/C by setting is: (endpoint: mean survival time, dose: 16.0 mg/kg/injection, schedule: Q01DX Z (ip), vehicle: carboxymethylcellulose (CMC)) 110 % of control; (endpoint: mean survival time, dose: 20.0 mg/kg/injection, schedule: Q01DX009 (ip), vehicle: saline) 106 % of control and 113 % of control; (endpoint: mean survival time, dose: 20.0 mg/kg/injection, schedule: Q01DX010 (ip), vehicle: saline) 94 % of control and 95 % of control and 116 % of control; (endpoint: mean survival time, dose: 32.0 mg/kg/injection, schedule: Q01DX015 (ip), vehicle: carboxymethylcellulose (CMC)) 123 % of control; (endpoint: mean survival time, dose: 40.0 mg/kg/injection, schedule: Q01DX009 (ip), vehicle: saline) 119 % of control; (endpoint: mean survival time, dose: 40.0 mg/kg/injection, schedule: Q01DX010 (ip), vehicle: saline) 97 % of control. The T/C (endpoint: mean survival time, dose: 64.0 mg/kg/injection, schedule: Q01DX010 (iv), vehicle: saline) was 102 % of control; the T/C (endpoint: mean survival time, dose: 64.0 mg/kg/injection, schedule: Q01DX015 (ip), vehicle: carboxymethylcellulose (CMC)) was 123 % of control; the T/C (endpoint: mean survival time, dose: 80.0 mg/kg/injection, schedule: Q01DX010 (ip), vehicle: saline) was 97 % of control; the T/C (endpoint: mean survival time, dose: 128.0 mg/kg/injection, schedule: Q01DX010 (iv), vehicle: saline) was 100 % of control; the T/C (endpoint: mean survival time, dose: 128.0 mg/kg/injection, schedule: Q01DX015 (ip), vehicle: carboxymethylcellulose (CMC)) is 115 % of control; the T/C (endpoint: mean survival time, dose: 256.0 mg/kg/injection, schedule: Q01DX010 (iv), vehicle: saline) was 108 % of control. Moreover, the T/C was 105 % of control and 106 % of control (endpoint: median survival time, dose: 5.0 mg/kg/injection, schedule: Q01DX009 (ip), vehicle: saline); 110 % of control (endpoint: median survival time, dose: 10.0 mg/kg/injection, schedule: Q01DX009 (ip), vehicle: saline); 110 % of control and 112 % of control (endpoint: median survival time, dose: 20.0 mg/kg/injection, schedule: Q01DX009 (ip), vehicle: saline); 120 % of control (endpoint: median survival time, dose: 40.0 mg/kg/injection, schedule: Q01DX009 (ip), vehicle: saline).
Take `Fc1ccc(F)c(-c2c(F)ccc(F)c2F)c1F`: the T/C (endpoint: mean survival time, dose: 25.6 mg/kg/injection, schedule: Q04DX002 (ip), vehicle: saline with Tween-80) was 100 % of control; the T/C (endpoint: mean survival time, dose: 64.0 mg/kg/injection, schedule: Q04DX002 (ip), vehicle: saline with Tween-80) is 113 % of control; the T/C (endpoint: mean survival time, dose: 160.0 mg/kg/injection, schedule: Q04DX002 (ip), vehicle: saline with Tween-80) is 95 % of control; the T/C under setting [1] was 103 % of control.
Turning to `N=C(N)N(CC(=O)O)Cc1ccccc1`, the T/C (endpoint: mean survival time, dose: 100.0 mg/kg/injection, schedule: Q04DX002 (ip), vehicle: saline with Tween-80) was 101 % of control; the T/C (endpoint: mean survival time, dose: 200.0 mg/kg/injection, schedule: Q04DX002 (ip), vehicle: saline with Tween-80) was 114 % of control; the T/C under setting [1] was 104 % of control.
Take `CC(C)C(NC(=O)c1ccccc1)C(=O)O` (stereo unspecified): the T/C is, setting by setting: under setting [2], 92 % of control; (endpoint: mean survival time, dose: 100.0 mg/kg/injection, schedule: Q04DX003 (ip), vehicle: Klucel (hydroxypropylcellulose) (HPC)) 96 % of control; under setting [3], 98 % of control; (endpoint: mean survival time, dose: 200.0 mg/kg/injection, schedule: Q04DX003 (ip), vehicle: Klucel (hydroxypropylcellulose) (HPC)) 113 % of control; under setting [4], 96 % of control; (endpoint: mean survival time, dose: 400.0 mg/kg/injection, schedule: Q04DX003 (ip), vehicle: Klucel (hydroxypropylcellulose) (HPC)) 100 % of control.
For the compound `CC(=O)Cc1ccc(C(=O)C(C)Cc2ccc(C(C)=O)cc2)cc1` (stereo unspecified), the T/C (endpoint: mean survival time, dose: 100.0 mg/kg/injection, schedule: Q04DX003 (ip), vehicle: saline with Tween-80) was 90 % of control; the T/C (endpoint: mean survival time, dose: 200.0 mg/kg/injection, schedule: Q04DX003 (ip), vehicle: saline with Tween-80) was 110 % of control; the T/C (endpoint: mean survival time, dose: 400.0 mg/kg/injection, schedule: Q04DX003 (ip), vehicle: saline with Tween-80) was 92 % of control.
As for `C1=C\CCCCCCCC/1`, the T/C was 93 % of control (endpoint: mean survival time, dose: 6.25 mg/kg/injection, schedule: Q01DX009 (ip), vehicle: saline with Tween-80); 104 % of control (endpoint: mean survival time, dose: 12.5 mg/kg/injection, schedule: Q01DX009 (ip), vehicle: saline with Tween-80); 98 % of control (endpoint: mean survival time, dose: 25.0 mg/kg/injection, schedule: Q01DX009 (ip), vehicle: saline with Tween-80); 101 % of control under setting [5]; 101 % of control under setting [6]; 95 % of control under setting [7].
As for `COC(OC)/C(C)=N/NC(N)=O`, the T/C reads like this: (endpoint: mean survival time, dose: 100.0 mg/kg/injection, schedule: Q01DX001 (ip), vehicle: carboxymethylcellulose (CMC)) 88 % of control; (endpoint: mean survival time, dose: 200.0 mg/kg/injection, schedule: Q01DX001 (ip), vehicle: carboxymethylcellulose (CMC)) 116 % of control; (endpoint: mean survival time, dose: 400.0 mg/kg/injection, schedule: Q01DX001 (ip), vehicle: carboxymethylcellulose (CMC)) 108 % of control.
Turning to `CC1(C)CC(=O)C2=C(C1)Nc1ccc(Cl)cc1NC2c1ccccc1` (stereo unspecified), the T/C reads like this: (endpoint: mean survival time, dose: 25.0 mg/kg/injection, schedule: Q04DX002 (ip), vehicle: Klucel (hydroxypropylcellulose) (HPC)) 92 % of control; (endpoint: mean survival time, dose: 50.0 mg/kg/injection, schedule: Q04DX002 (ip), vehicle: Klucel (hydroxypropylcellulose) (HPC)) 106 % of control; (endpoint: mean survival time, dose: 100.0 mg/kg/injection, schedule: Q04DX002 (ip), vehicle: Klucel (hydroxypropylcellulose) (HPC)) 92 % of control; (endpoint: mean survival time, dose: 200.0 mg/kg/injection, schedule: Q04DX002 (ip), vehicle: Klucel (hydroxypropylcellulose) (HPC)) 103 % of control and 113 % of control; (endpoint: mean survival time, dose: 400.0 mg/kg/injection, schedule: Q04DX002 (ip), vehicle: Klucel (hydroxypropylcellulose) (HPC)) 106 % of control.
Turning to `CCOC(=O)c1ccc(NC(=O)SCCSC(=O)Nc2ccc(C(=O)OCC)cc2)cc1`, the T/C is 90 % of control under setting [2], 91 % of control under setting [3] and 91 % of control under setting [4].
As to `NC(=S)NNC(=O)c1ccncc1`, the T/C by setting is: under setting [5], 96 % of control; under setting [6], 96 % of control; under setting [7], 91 % of control.
As for `Cc1nc[nH]c(=O)c1CCC1OCCO1`, the T/C runs as follows: under setting [8], 93 % of control; under setting [9], 98 % of control; under setting [10], 98 % of control.
As to `C[n+]1c(-c2ccc(Cl)c(Cl)c2)c2cc([N+](=O)[O-])ccc2c2ccccc21`, the T/C under setting [8] is 95 % of control, the T/C under setting [9] is 93 % of control and the T/C under setting [10] was 97 % of control.
